From ChEMBL document CHEMBL1201862, “PubChem BioAssay data set” (2004)
Active and inactive are the calls of the source.

Key:
[1] = blockers of SFLLRN-triggered platelet ATP secretion – cell-based, human platelets, luminescence, dry powder, dose response (AID 493100); type: functional
[2] = Luminescence Cell-Based Dose Response Follow up to Identify Inhibitors of Platelet Dense Granule Release. [Related pubchem assays (depositor defined):AID1663, AID1678, AID2398]; type: functional
[3] = inhibitors of SFLLRN-triggered platelet P-selectin exposure, dose response, cell-based, fluorescence, flow cytometry, human platelets (AID 2511); type: functional
Nonstructural protein 1 = Nonstructural protein 1 (Influenza A virus, UniProt Q194T2); type: functional, Influenza A virus (A/California/07/2009(H1N1))
Nonstructural protein 1, sequence (Q194T2 whole entry): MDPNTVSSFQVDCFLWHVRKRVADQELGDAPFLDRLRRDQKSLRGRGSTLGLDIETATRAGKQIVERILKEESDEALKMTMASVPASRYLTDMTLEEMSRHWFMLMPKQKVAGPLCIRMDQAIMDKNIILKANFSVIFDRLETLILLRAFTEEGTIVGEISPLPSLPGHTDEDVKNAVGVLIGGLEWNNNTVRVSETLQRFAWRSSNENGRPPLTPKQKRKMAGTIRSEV

[4] = biological target: T1, Small ubiquitin-related modifier 1 (Homo sapiens, UniProt P63165); test: inhibitors of SUMO1 peptide binding, dose response, biochemical, fluorescence polarization, uHTS hits (AID 624382); type: functional; settings: read-out: IC50_Mean
T1 sequence (P63165 whole entry): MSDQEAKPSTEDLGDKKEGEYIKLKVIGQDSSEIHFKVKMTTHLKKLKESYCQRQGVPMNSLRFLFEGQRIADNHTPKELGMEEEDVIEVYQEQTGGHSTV

[5] = biological target: T1, Small ubiquitin-related modifier 1; test: inhibitors of SUMO1 partner interactions, dose response, biochemical, FRET (AID 624383); type: functional; settings: read-out: IC50_Mean
[6] = biological target: Envelope glycoprotein gp160 (Human immunodeficiency virus 1, UniProt Q6QLK5); test: inhibitors of HIV fusion peptide binding, primary screen, biochemical, uHTS, fluorescence dequenching (AID 1986)
[7] = biological target: T2, Dual specificity protein phosphatase 3 (Homo sapiens, UniProt P51452); test: VHR1 phosphatase inhibitors, biochemical (AID 1878)
T2 sequence (P51452 whole entry): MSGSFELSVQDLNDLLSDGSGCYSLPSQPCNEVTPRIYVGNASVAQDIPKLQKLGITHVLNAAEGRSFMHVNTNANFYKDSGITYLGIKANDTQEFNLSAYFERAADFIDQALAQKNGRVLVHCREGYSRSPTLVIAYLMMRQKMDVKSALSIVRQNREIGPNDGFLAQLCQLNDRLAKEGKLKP

[8] = biological target: T2, Dual specificity protein phosphatase 3; test: VHR1 phosphatase inhibitors, primary screen, biochemical, absorbance, uHTS (AID 1654)
[9] = biological target: Eukaryotic translation initiation factor 4E (Mus musculus, UniProt P63073); test: eIF4E–eIF4G protein interaction inhibitors, dose response, biochemical, TR-FRET (AID 855); type: functional;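 also: potency for disrupting eIF4E binding to eIF4GI seen as loss of FRET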
Eukaryotic translation initiation factor 4E, sequence (P63073 whole entry, the tested form may be a part): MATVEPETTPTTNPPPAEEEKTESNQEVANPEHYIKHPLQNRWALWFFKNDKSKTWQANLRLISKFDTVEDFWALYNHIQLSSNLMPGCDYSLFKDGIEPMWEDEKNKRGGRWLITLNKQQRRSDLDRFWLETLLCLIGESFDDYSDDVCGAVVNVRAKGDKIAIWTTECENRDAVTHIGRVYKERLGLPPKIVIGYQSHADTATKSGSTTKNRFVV

[10] = HIV-1 Env-mediated cell fusion inhibitors, dose response, CCR5-tropic Env (AID 2279); type: functional
[11] = biological target: DNA (cytosine-5)-methyltransferase 1 (Homo sapiens, UniProt P26358); test: DNMT1 methyltransferase inhibitors, confirmation, biochemical, fluorescent molecular beacon (AID 602386); type: functional
DNA (cytosine-5)-methyltransferase 1, sequence (P26358 whole entry): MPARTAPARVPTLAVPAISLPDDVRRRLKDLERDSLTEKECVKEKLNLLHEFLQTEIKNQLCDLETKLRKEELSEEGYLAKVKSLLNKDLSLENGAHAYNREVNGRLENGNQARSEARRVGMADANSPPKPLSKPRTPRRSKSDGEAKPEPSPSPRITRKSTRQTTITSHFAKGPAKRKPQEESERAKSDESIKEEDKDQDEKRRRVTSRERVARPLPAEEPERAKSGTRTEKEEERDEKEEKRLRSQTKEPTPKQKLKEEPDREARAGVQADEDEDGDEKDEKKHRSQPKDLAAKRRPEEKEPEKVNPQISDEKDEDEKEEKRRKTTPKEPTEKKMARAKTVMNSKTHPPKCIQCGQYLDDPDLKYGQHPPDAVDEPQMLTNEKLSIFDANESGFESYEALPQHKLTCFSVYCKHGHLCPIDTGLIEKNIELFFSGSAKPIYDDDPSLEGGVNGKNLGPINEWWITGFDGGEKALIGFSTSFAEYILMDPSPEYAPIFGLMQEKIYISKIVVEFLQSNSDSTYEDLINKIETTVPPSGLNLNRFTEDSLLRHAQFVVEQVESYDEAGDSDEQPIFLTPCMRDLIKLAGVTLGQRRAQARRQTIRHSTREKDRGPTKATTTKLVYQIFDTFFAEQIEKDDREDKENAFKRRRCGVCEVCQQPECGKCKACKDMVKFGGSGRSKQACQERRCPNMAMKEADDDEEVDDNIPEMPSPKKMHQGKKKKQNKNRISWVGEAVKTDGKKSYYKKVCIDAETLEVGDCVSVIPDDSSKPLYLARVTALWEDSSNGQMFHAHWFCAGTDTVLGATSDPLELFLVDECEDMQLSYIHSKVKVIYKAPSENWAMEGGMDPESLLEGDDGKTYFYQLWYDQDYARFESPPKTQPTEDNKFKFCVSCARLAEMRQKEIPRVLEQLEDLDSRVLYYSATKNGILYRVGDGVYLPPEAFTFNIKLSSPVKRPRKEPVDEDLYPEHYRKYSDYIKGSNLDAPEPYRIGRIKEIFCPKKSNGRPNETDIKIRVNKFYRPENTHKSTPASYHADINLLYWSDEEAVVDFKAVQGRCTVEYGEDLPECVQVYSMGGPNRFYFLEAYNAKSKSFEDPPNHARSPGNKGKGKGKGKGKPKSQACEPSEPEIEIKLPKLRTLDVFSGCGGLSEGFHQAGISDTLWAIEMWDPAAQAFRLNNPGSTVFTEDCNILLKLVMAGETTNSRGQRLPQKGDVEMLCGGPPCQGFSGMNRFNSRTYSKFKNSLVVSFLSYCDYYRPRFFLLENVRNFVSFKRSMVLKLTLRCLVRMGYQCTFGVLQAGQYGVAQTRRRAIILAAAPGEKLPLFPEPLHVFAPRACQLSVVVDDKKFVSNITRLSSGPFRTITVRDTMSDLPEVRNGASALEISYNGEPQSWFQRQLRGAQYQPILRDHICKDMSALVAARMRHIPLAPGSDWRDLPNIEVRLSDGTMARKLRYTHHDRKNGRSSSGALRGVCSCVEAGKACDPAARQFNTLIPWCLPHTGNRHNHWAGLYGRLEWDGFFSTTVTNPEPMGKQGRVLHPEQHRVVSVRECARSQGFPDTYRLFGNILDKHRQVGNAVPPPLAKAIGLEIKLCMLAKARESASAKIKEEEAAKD

Vero = Vero cell cytotoxicity, cytotoxicity control for flavivirus capping enzyme inhibitors (AID 588742); type: functional; settings: Chlorocebus sabaeus
[12] = biological target: T3, Dual specificity protein phosphatase 6 (Rattus norvegicus, UniProt Q64346); test: MKP-3 phosphatase inhibitors, primary screen, biochemical, rat enzyme, in vitro (AID 425)
T3 sequence (Q64346 whole entry): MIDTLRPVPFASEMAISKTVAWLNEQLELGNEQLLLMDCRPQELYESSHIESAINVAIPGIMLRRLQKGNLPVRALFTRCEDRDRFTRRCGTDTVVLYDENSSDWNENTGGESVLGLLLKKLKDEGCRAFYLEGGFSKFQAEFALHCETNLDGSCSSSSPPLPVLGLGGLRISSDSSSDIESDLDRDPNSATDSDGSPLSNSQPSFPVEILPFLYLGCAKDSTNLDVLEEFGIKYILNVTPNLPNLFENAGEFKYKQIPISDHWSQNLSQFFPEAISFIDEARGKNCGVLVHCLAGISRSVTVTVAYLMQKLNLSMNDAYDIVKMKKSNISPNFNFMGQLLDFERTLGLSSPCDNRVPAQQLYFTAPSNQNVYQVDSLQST

Genome polyprotein = Genome polyprotein (dengue virus type 2, UniProt P29990); test: Dengue-2 NS5 methyltransferase inhibitors, primary screen, biochemical, confirmation dose response (AID 588689); type: functional
[13] = biological target: Dual specificity tyrosine-phosphorylation-regulated kinase 1A (Rattus norvegicus, UniProt Q63470); type: biochemical, Homo sapiens
DNA topoisomerase = DNA topoisomerase (Yersinia pestis, UniProt A0A2S9PM60); test: Y. pestis Topo-I inhibitors, cleavage product readout, dose response, biochemical, cherry-pick (AID 588525)
[14] = biological target: Beta-adrenergic receptor kinase 1 (Homo sapiens, UniProt P25098); test: aptamer displacement from bead-bound GRK2 – biochemical, cherry pick 1, bead flow cytometry, dose response (AID 504500)
Beta-adrenergic receptor kinase 1, sequence (P25098 whole entry): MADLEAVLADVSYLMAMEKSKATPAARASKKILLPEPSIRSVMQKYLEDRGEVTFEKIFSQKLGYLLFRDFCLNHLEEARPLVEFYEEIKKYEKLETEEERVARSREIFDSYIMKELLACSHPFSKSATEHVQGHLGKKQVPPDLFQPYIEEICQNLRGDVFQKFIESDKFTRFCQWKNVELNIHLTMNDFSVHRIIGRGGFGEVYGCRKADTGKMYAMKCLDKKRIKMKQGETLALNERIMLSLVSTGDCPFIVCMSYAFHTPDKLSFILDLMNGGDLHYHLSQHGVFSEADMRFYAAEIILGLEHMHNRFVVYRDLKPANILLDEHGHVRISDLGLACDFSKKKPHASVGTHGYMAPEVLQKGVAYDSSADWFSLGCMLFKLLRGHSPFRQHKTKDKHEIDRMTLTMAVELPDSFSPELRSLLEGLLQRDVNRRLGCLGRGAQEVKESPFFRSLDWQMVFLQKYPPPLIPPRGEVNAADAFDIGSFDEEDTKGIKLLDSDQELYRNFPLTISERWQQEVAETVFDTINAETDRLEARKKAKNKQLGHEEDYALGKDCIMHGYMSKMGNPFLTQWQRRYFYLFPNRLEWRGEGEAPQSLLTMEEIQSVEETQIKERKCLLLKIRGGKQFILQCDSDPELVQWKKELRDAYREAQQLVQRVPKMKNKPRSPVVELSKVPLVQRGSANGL

[15] = biological target: Cystic fibrosis transmembrane conductance regulator/Golgi-associated PDZ and coiled-coil motif-containing protein (Homo sapiens, UniProt P13569+Q9HD26); test: CAL PDZ peptide-binding inhibitors, dose response, biochemical, fluorescence polarization, Cerulean-tagged CAL PDZ, cherry-picks (AID 504773)
Cystic fibrosis transmembrane conductance regulator/Golgi-associated PDZ and coiled-coil motif-containing protein, sequence (P13569 whole entry, other chains not shown): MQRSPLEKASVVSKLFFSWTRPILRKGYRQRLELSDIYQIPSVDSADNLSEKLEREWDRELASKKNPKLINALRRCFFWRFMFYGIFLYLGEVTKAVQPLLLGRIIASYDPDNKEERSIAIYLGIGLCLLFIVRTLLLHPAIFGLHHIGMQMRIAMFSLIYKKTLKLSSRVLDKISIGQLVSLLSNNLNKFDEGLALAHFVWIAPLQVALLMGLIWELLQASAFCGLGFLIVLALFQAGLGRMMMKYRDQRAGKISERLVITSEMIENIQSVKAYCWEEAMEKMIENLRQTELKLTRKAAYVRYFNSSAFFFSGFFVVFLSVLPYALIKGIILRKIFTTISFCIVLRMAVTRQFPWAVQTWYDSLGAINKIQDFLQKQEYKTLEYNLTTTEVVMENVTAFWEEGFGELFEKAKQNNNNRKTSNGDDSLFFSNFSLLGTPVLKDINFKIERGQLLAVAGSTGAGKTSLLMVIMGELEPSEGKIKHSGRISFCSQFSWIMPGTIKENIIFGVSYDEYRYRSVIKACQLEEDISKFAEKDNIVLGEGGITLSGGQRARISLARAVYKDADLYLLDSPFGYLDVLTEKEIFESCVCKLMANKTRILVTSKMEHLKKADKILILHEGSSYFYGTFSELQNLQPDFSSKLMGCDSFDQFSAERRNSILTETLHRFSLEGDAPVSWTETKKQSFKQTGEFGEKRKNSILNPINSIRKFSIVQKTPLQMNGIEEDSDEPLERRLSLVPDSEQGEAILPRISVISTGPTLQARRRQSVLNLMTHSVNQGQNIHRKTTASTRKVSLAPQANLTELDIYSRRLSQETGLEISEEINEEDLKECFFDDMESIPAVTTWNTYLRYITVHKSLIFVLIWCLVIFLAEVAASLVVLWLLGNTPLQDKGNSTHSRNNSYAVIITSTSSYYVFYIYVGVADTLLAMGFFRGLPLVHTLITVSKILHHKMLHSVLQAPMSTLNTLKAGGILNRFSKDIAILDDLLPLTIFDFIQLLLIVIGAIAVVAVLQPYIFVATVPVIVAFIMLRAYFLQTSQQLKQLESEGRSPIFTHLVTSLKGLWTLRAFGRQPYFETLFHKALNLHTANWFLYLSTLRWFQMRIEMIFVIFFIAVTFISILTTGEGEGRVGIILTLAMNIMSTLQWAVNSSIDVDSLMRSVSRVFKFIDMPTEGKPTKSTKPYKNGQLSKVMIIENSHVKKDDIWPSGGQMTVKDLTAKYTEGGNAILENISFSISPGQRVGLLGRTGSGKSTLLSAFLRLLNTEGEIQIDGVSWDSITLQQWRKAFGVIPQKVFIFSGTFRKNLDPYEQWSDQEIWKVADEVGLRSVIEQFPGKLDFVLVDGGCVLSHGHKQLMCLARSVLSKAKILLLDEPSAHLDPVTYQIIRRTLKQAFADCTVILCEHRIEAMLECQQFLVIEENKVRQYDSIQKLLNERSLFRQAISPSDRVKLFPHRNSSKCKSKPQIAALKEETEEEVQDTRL

[16] = biological target: G-protein coupled receptor 55 (Homo sapiens, UniProt Q9Y2T6); test: GPR55 agonists via beta-arrestin recruitment, primary screen, imaging, U2OS cells, beta-arrestin-GFP redistribution (AID 1961); type: functional
G-protein coupled receptor 55, sequence (Q9Y2T6 whole entry): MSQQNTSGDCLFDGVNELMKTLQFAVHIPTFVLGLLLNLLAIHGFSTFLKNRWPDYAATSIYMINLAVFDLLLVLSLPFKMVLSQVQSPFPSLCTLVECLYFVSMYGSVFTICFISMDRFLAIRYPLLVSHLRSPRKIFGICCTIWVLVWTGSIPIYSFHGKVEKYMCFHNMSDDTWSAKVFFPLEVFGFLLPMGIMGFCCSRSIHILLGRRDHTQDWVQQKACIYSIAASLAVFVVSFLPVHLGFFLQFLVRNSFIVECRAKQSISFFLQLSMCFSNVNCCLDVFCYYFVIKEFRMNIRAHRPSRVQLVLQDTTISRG

[17] = Counterscreen for AddAB inhibitors: absorbance-based bacterial cell-based high throughput dose response assay for inhibitors of bacterial viability. [Related pubchem assays (depositor defined):AID435030, AID449728, AID449731, AID488942, AID488955, AID488956]; type: functional
Exodeoxyribonuclease V = Exodeoxyribonuclease V (Escherichia coli (strain K12), UniProt P04993+P07648+P08394); test: E. coli RecBCD inhibitors, dose response, counter-screen for AddAB inhibitor project, absorbance, V66 E. coli, mutant T4 phage (AID 492957); type: functional, cell-based, Escherichia coli str. K-12 substr. MG1655
INS1 = test: beta cell apoptosis inhibitors, cytokine rescue, dose response, luminescence, retest (AID 449756); type: functional, cell-based; settings: Rattus norvegicus;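 also: cell death triggered by IL-1 beta plus TNF-alpha plus IFN-gamma mixture; protective hits raise ATP signal compared with cytokine alone wells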
[18] = biological target: Voltage-gated inwardly rectifying potassium channel KCNH2 (Homo sapiens, UniProt Q12809); settings: Potency;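 also: confirmatory quantitative high-throughput screen measuring inhibition of hERG channel activity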
Hexokinase-1 = Hexokinase-1 (Homo sapiens, UniProt P19367); test: HK1 enzyme inhibition by HKDC1 hits, SAR follow-up, selectivity assay for HKDC1 inhibitor project, biochemical, set 2, resazurin fluorescence coupled readout (AID 588356); type: functional
Hexokinase HKDC1 = biological target: T4, Hexokinase HKDC1 (Homo sapiens, UniProt Q2TB90); test: HKDC1 hexokinase inhibitors, SAR follow-up, biochemical, set 2 (AID 588355); type: functional
T4 sequence (Q2TB90 whole entry): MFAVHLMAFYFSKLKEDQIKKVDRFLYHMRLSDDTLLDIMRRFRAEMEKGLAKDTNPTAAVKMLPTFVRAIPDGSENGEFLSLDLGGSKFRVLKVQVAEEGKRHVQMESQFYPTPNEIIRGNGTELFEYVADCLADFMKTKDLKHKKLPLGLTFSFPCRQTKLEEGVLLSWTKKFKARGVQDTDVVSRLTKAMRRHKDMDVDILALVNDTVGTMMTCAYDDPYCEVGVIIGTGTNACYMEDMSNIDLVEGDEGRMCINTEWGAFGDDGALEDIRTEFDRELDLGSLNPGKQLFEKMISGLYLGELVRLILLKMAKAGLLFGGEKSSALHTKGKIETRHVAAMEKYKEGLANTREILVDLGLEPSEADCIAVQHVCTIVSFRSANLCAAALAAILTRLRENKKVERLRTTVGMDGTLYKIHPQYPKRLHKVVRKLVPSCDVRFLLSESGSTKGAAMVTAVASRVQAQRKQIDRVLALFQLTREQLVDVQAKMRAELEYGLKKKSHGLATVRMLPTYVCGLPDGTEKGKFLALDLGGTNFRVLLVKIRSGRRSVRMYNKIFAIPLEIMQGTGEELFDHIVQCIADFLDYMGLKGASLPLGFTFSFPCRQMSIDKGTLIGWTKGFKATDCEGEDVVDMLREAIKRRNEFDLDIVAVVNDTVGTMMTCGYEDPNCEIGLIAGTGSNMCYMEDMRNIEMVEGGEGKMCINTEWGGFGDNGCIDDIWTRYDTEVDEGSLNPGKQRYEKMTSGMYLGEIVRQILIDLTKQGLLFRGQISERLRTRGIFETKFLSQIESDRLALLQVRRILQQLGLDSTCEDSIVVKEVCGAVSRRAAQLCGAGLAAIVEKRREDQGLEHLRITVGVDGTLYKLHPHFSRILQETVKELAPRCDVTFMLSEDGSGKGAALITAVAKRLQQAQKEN

HEK293 [19] = test: SAR Analysis of small molecule inhibitors of T-cell specific antigen receptor-induced NF-kB activation in a HEK-293T cell line using a luminescence assay - Set 2. [Related pubchem assays (depositor defined):AID435003, AID435012, AID489026]; type: functional, cell-based; settings: Homo sapiens
Jurkat = test: SAR Analysis of small molecule inhibitors of T-cell specific antigen receptor-induced NF-kB activation in a Jurkat cell line using a luminescence assay - Set 2. [Related pubchem assays (depositor defined):AID435003, AID435012, AID465]; type: functional, cell-based; settings: Homo sapiens
HEK293 [20] = test: cytotoxicity in HEK293T NF-kB-Luc cells, SAR follow-up, cytotoxicity control for NF-kB activator project, cell-based, resazurin fluorescence (AID 493251); type: functional; settings: Homo sapiens
A-375 [21] = test: MITF: Counter assay: A375 proliferation Measured in Cell-Based System Using Plate Reader - 2084-03_Inhibitor_Dose_DryPowder_Activity. [Related pubchem assays (depositor defined):AID488944]; type: functional; settings: Homo sapiens
A-375 [22] = test: A375 melanoma cell viability reduction, dose response, counter-screen for MITF modulator project, cherry-pick samples, set 2 (AID 540335); type: functional, cell-based; settings: Homo sapiens
cells = type: functional
[23] = biological target: T5, DNA repair and recombination protein RAD54-like (Homo sapiens, UniProt Q92698); test: inhibitors of human RAD54 branch migration, confirmation, biochemical, fluorescence, cherry-picked samples, dose series (AID 651657); type: functional
T5 sequence (Q92698 whole entry): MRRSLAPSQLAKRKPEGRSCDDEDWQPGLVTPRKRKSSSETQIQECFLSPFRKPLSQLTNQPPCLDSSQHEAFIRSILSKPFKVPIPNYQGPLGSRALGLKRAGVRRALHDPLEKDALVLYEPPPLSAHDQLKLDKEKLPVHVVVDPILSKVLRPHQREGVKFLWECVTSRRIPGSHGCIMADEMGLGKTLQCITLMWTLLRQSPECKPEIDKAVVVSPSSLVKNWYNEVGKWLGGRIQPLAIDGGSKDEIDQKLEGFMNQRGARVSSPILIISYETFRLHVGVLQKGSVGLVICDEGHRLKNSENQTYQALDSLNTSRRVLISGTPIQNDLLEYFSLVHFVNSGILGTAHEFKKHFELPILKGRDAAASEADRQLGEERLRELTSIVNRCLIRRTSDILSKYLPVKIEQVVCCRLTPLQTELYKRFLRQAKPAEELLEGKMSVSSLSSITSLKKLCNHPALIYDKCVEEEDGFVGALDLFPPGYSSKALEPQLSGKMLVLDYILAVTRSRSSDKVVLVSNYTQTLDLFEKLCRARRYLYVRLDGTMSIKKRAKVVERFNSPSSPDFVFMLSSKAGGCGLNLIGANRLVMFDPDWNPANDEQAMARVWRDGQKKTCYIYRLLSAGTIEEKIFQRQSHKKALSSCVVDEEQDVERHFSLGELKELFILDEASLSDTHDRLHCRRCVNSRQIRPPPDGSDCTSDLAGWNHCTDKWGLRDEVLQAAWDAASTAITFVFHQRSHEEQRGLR

[24] = system: Streptococcus sp. 'group A'; test: growth inhibition of control SK(-) GAS strain, dose response, counter-screen for streptokinase expression inhibitor project, luminescence, kanamycin, BacTiterGlo, confirmation (AID 1900); type: functional, organism-based
Escherichia coli [25] = test: microbe, parasite or virus in culture
Escherichia coli [26] = test: microbe, parasite or virus in culture; remark: listed apart in the source
Streptococcus = test: Group A Streptococcus viability loss, dose response, counter-screen for streptokinase expression inhibitor project, luminescence, BacTiterGlo (AID 1915); type: functional, organism-based;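 also: potency for reduction of bacterial viability or growth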

Cc1ccc(-c2c(C#N)c(N)n(-c3ccc(Cl)cc3)c(=O)c2C#N)cc1
AC50 [1]: 20.4 µM (active)
EC50 [2]: 9.21 µM (active)
EC50 [3]: < 3 µM (active)

COc1cc(/C=C2\SC(=O)N(Cc3ccc(Cl)cc3)C2=O)cc([N+](=O)[O-])c1O
IC50 (Nonstructural protein 1): 26.9 µM (active)
IC50 [4]: > 66.6 µM (inactive)
IC50 [5]: 6.99 µM (active)
IC50 [6]: 14.9 µM (active)
IC50 [7]: 3.54 µM (active)
IC50 [8]: 4.68 µM (active)
IC50 [9]: 36.7 µM (inactive)
IC50 [10]: > 50 µM (active)
IC50 [11]: 4.6 µM (active)
CC50 (Vero): > 40 µM (active)
IC50 [12]: > 158 µM (not active)
IC50 (Genome polyprotein): 67.5 µM (active)

c1nc2sc3c(c2c2nnnn12)CCCC3
AC50 [13]: 63.2 µM (active)

CSc1ccccc1OCc1cc(C(=O)NCCCc2ccccc2)no1
AC50 (DNA topoisomerase): 17 µM (active)

O=C(c1ccccc1)c1c2c(cc3sc4ccccc4[n+]13)-c1cccc3cccc-2c13
EC50 [14]: 0.06 µM (active)
AC50 [15]: 72.6 µM (active)
EC50 [16]: > 32 µM (inactive)
IC50 [17]: 15.1 µM (inactive)
IC50 (Exodeoxyribonuclease V): 91.3 µM (inactive)
AC50 (INS1): 2.05 µM (active)

O=[N+]([O-])c1cccc(Cl)c1Cl
AC50 [18]: 50.1 µM (inconclusive)

O=C(NC1C(=O)N(CCN2CCOCC2)c2ccccc21)c1ccccc1 (configuration not stated)
IC50 (Hexokinase-1): > 80 µM (inactive)
IC50 (Hexokinase HKDC1): > 80 µM (inactive)

O=C(Nc1ccc2c(c1)CCO2)c1ccc([N+](=O)[O-])o1
IC50 (HEK293 [19]): 45.6 µM (inactive)
IC50 (Jurkat): 33.8 µM (inactive)
IC50 (HEK293 [20]): 59.5 µM (inactive)

CSC(=N)N/N=C/c1ccc2c(c1)OCO2
AC50 (A-375 [21]): > 35 µM (active)
AC50 (A-375 [22]): > 35 µM (active)

NC1CCN(c2c(F)cc3c(=O)c(C(=O)O)cn(C4CC4)c3c2Cl)C1 (configuration not stated) [CLINAFLOXACIN]
IC50 (cells): 0.15 µM (active)
AC50 [23]: 41.4 µM (active)
EC50 [24]: 0.115 µM (active)
AC50 (Escherichia coli [25]): 0.816 µM (active)
AC50 (Escherichia coli [26]): 4.49 µM (active)
EC50 (Streptococcus): 0.142 µM (active)
